Patent US20230357099A1, “PYRAZOLO [3,4-B] PYRIDINE-4-CARBOXAMIDE NITRIFICATION INHIBITOR” (EUROCHEM ANTWERPTEN, priority 2020, published 2023)
Where two headings read alike, the source gives them in different places.

How the values were obtained:
[1] = test system: Nitrososphaera viennensis; experiment: Nitrification inhibition assay on Nitrososphaera viennensis (nitrite, Griess); format: cell-based, Nitrososphaera viennensis EN76T; details: for activity at 2.5 µM: Nitrososphaera viennensis, 2.5 µM compound, structural variants outside formula (I), read-out: Relative nitrification (%) by Nitrososphaera viennensis treated with 2.5 µM compound; for N. viennensis - relative nitrification (%) at 0.5 µM: 0.5 µM compound; for N. viennensis - relative nitrification (%) at 0.5 µM / N. viennensis - relative nitrification (%) at 5 µM / N. viennensis - relative nitrification (%) at 25 µM: 0% = as strong as 100 µM PTIO, 100% = no inhibition; for N. viennensis - relative nitrification (%) at 5 µM: 5 µM compound; for N. viennensis - relative nitrification (%) at 25 µM: 25 µM compound
Description: Nitrite (NO2—) was measured using the Griess reagent (Product number: G4410, Griess reagent (modified), Sigma-Aldrich). Equal volumes of the sample or a diluted sample and the Griess reagent were mixed a transparent flat bottom multi-well plate and incubated in the dark at room temperature for 10 minutes. Absorbance values at 540 nm were measured spectrophotometrically (EnVision, Perkin Elmer®) and used to calculate the [NO2—] by use of a standard curve.
A liquid culture sample of Nitrososphaera viennensis EN76T was kindly supplied by prof. dr. Christa Schleper (University of Vienna). Cells were grown in fresh water medium (FWM) as described earlier by Tourna et al. (2011). All necessary materials were rinsed with 1 % HCl and washed at least 3 times with MilliQ water. FWM (pH 7.5 (KOH)) contained 17 mM NaCl, 3 mM MgCl2 × 2 H2O, 680 µM CaCl2 × 2 H2O, 1.47 mM KH2PO4 and 6.71 mM KCI. After autoclaving, successively 1 mL non-chelated trace element mixture (101 mM HCl, 488 µM H3BO3, 508 µM MnCl2 × 4 H2O, 803 µM CoCl2 × 6 H2O, 101 µM NiCl2 × 6 H2O, 12 µM CuCl2 × 2 H2O, 503 µM ZnSO4 × 7 H2O and 150 µM Na2MoO4 × 2 H2O), 1 mL Fe-NaEDTA (7.5 mM), 1 mL vitamin solution (20 mg/L biotin, 20 mg/L folic acid, 100 mg/L pyridoxine-HCl, 50 mg/L thiamine-HCl, 50 mg/L riboflavin, 50 mg/L nicotinic acid, 50 mg/L DL-pantothenic acid, 50 mg/L P-aminobenzoic acid, 2 g/L choline chloride and 10 mg/L vitamin B12), 2 mL NaHCO3 (1 M), 2 mL kanamycin (100 mg/mL), 2 mL carbenicillin (100 mg/mL), 3 mL NH4Cl (1 M), 10 mL HEPES buffer (1 M, pH 7.6) and 1 mL Na-pyruvate (0.1 M) were added aseptically. All stock-solutions were filter-sterilized, except the autoclaved non-chelated trace element mixture. Cultures were incubated aerobically at 42° C. without shaking in sterile 250-mL Erlenmeyer flasks or 30-mL cultivation tubes (Product number: 216-1290, Quickstart universal containers STERILIN®, VWR) filled with either 100 or 20 mL FWM and sealed with tape (Micropore™ Surgical Tape 1530-1, 3M™). Late-log phase cultures ([NO2-] ≥ 1 mM) were subcultivated by dilution (1:400) in fresh FWM.
7-day old 100 mL cultures grown in 250-mL Erlenmeyer flasks with a [NO2-] ≥ 1 mM were 5 times overconcentrated in fresh FWM by centrifugation (4000 rpm, 15 min, 5° C.) in 50 mL centrifuge tubes (Cat. No. 430829, CentriStar™ Conical Centrifuge Tubes, Corning®). Per batch, all the cultures were pooled in one sterile Schott bottle. Subsequently, 200 µl/well was dispensed at low pipetting speed in transparent flat bottom 96-well plates (Cat. No. 353072, Falcon® 96 Well Clear Microplate, Corning®) using 150 µl wide-bore tips (two steps of 100 µl) on a Tecan robot (Freedom EVO®, Tecan). 0.5 µl of 99.99 % DMSO (negative control - final concentration 0.25%) and 0.5 µl of 0.04 M PTIO (2-phenyl-4,4,5,5-tetramethylimidazoline-1-oxyl 3-oxide, positive control - final concentration 100 µM) were added manually to the first and last column respectively. Finally, 0.5 µl of candidate nitrification inhibitors (1 mM stock solutions in 99.99% DMSO - final concentration 2.5 µM) were added to the central wells using a pin tool on a Tecan robot (Freedom EVO®, Tecan). In between additions, the pins were washed in sequence with 99.5% DMSO, MilliQ water and 100% ethanol and air-dried. All plates were sealed with tape (Micropore™ Surgical Tape 1530-1, 3M™), stacked per 4 on top of a 96-well plate filled with 100 µl MilliQ per well and covered with aluminum foil. Position effects of the stacks within the incubator were considered. Plates were incubated at 42° C. without shaking. 24 h later, NO2— was measured spectrophotometrically at 540 nm (EnVision, Perkin Elmer®). […]

[2] = test system: ABIL (ammonia-binding liquid inoculum), nitrifying microbial enrichment containing both AOA and AOB; experiment: Nitrification inhibition assay on ABIL (ammonium consumption); format: cell-based; details: 10 µM compound
[3] = structural variants outside formula (I), read-out: Relative nitrification (%) by ABIL treated with 10 µM compound
[4] = 24 h, 24 h, 0% = as strong as 100 µM PTIO, 100% = no inhibition, read-out: ABIL - relative nitrification (%) at 10 µM
[5] = 24 h, 0% = as strong as 100 µM PTIO, 100% = no inhibition

Structure (SMILES) | activity at 2.5 µM [1] [%] | activity at 10 µM [2, 3] [%] | also measured
Fc1cccnc1N1CCC(NCc2cccc3cn[nH]c23)C1 (stereo not shown) [Example 112] | 100 | 98 | 
CC(=O)c1ccc(OCC(=O)Nc2cnc3c(cnn3C(C)C)c2)cc1 [Example 87] | 93 | 100 | 
CCOc1ccc(CN(CC)C(=O)c2n[nH]c3ccccc23)cc1OC [Example 163] | 99 | 100 | 
CCCN(C)C(=O)c1cc(C2CC2)nc2c1cnn2C(C)C [Example 18] |  |  | activity at 10 µM [2, 4]: 69%
Cc1nccc(Nc2ccc3[nH]ncc3c2)n1 [Example 115] | 96 | 98 | 
O=C(NCCc1ccccc1)c1n[nH]c2ccccc12 [Example 98] | 100 | 89 | 
COCCCCCNC(=O)Nc1ccc2[nH]ncc2c1 [Example 128] | 100 | 100 | 
CC(C)n1ncc2cc(NC(=O)CCC3CCCO3)cnc21 (stereo not shown) [Example 35] | 98 | 96 | 
CCn1ncc2c(C(=O)NCC3CCCO3)cc(-c3ccccc3)nc21 (stereo not shown) [Example 9] |  |  | N. viennensis - relative nitrification (%) at 0.5 µM [1]: 100%; N. viennensis - relative nitrification (%) at 5 µM [1]: 100%; N. viennensis - relative nitrification (%) at 25 µM [1]: 54%
Cc1nn(C)c2ncc(CNCc3ccc(N4CCCC4)nc3)cc12 [Example 59] | 92 | 100 | 
Cc1nn(C)c2nc(C3CC3)cc(C(=O)N(C)CC(=O)Nc3ccc(Cl)c(Cl)c3)c12 [Example 17] |  |  | activity at 10 µM [2, 4]: 68%
CC(C)n1ncc2cc(C(=O)NCc3ccccc3S(=O)(=O)N3CCCCC3)cnc21 [Example 81] | 100 | 100 | 
CC(C)CC(CNC(=O)c1n[nH]c2ccccc12)N1CCOCC1 (stereo not shown) [Example 133] | 100 | 100 | 
c1cc(CNCCc2nc(C3CC3)cs2)c2[nH]ncc2c1 [Example 130] | 94 | 100 | 
CC(C)n1ncc2c(C(=O)Nc3nc4c(s3)CCC4)cc(C3CC3)nc21 [Example 7] |  |  | N. viennensis - relative nitrification (%) at 0.5 µM [1]: 85%; N. viennensis - relative nitrification (%) at 5 µM [1]: 7%; N. viennensis - relative nitrification (%) at 25 µM [1]: 2%
CC(C)c1cc(C(=O)NCC2CCCO2)c2cnn(C(C)C)c2n1 (stereo not shown) [Example 4] |  |  | ABIL - relative nitrification (%) at 10 µM [2, 5]: 10%
COC(=O)C1(CNCc2cccc3cn[nH]c23)CCOCC1 [Example 152] | 98 | 100 | 
Cc1nc2c(cnn2C(C)C)cc1C(=O)NC(C)c1ccccc1Br (stereo not shown) [Example 62] | 100 | 100 | 
O=C(NCCCSc1ccccc1)c1n[nH]c2ccccc12 [Example 136] | 96 | 100 | 
O=C(NCCCCc1ccccc1)c1n[nH]c2ccccc12 [Example 146] | 96 | 100 | 
O=C(NC1CC1)c1cccc(NC(=O)c2n[nH]c3ccccc23)c1 [Example 165] | 100 | 100 | 
COc1ccc(OCCC(=O)Nc2n[nH]c3ccccc23)cc1 [Example 121] | 100 | 100 | 
Cc1n[nH]c2ncc(CNCc3ccc4c(c3)OCO4)cc12 [Example 70] | 100 | 100 | 
COc1ccc(OC)c(C(C)NC(=O)c2cnc3c(cnn3C(C)C)c2)c1 (stereo not shown) [Example 39] | 100 | 97 | 

Structure (SMILES) | activity at 2.5 µM [1] [%] | activity at 10 µM [2, 3] [%] | also measured
CC1(C)CN(C(=O)c2n[nH]c3ccccc23)CC[S+]1[O-] (stereo not shown) [Example 157] | 94 | 100 | 
CC(C)n1ncc2ccc(NC(=O)NC3CCN(C)C3=O)cc21 (stereo not shown) [Example 140] | 100 | 100 | 
CNC(=O)N(C)C(=O)c1cnc2c(cnn2C(C)C)c1 [Example 27] | 100 | 92 | 
CCc1cccc(NC(=O)CCc2c(C)nc3c(c(C)nn3C)c2C)c1 [Example 34] | 99 | 96 | 
Cc1nn(C)c2ncc(C(=O)NCC3CN(CC(C)C)CCO3)cc12 (stereo not shown) [Example 21] | 100 | 90 | 
Cc1cc(C)nc(-n2nc(C)c3c(C(F)(F)F)cc(-c4cccnc4)nc32)n1 [Example 86] | 94 | 100 | 
CCN(CC1CCOC1)C(=O)c1cc2cnn(C(C)C)c2nc1C (stereo not shown) [Example 41] | 100 | 98 | 
O=C(Nc1cccc(/C=C/c2ccccn2)c1)c1n[nH]c2ccccc12 [Example 145] | 96 | 100 | 
FC(F)(F)c1c[nH]c(C2CCN(Cc3cccc4cn[nH]c34)CC2)n1 [Example 158] | 100 | 100 | 
C#CCOCCC(=O)Nc1n[nH]c2c(Cl)cccc12 [Example 120] | 98 | 100 | 
O=C(CC1CCCCCC1)c1n[nH]c2ccccc12 [Example 119] | 100 | 99 | 
C=CCNC(=O)c1cnc2c(cnn2C(C)C)c1 [Example 89] | 100 | 100 | 
O=C(NCC1CCCO1)c1n[nH]c2ccc(Br)cc12 (stereo not shown) [Example 142] | 100 | 100 | 
Cc1nn(C)c2nc(-c3ccco3)cc(C(=O)N(C)CCOc3cccc(Cl)c3)c12 [Example 8] |  |  | N. viennensis - relative nitrification (%) at 0.5 µM [1]: 100%; N. viennensis - relative nitrification (%) at 5 µM [1]: 98%; N. viennensis - relative nitrification (%) at 25 µM [1]: 5%
Cc1nn(C(C)(C)C)c2nc(C3CC3)cc(C(=O)NC(C)C)c12 [Example 12] |  |  | activity at 10 µM [2, 4]: 30%
CC(C)c1cc(C(=O)NCC2CCCO2)c2cnn(C(C)C)c2n1 (stereo not shown) [Example 13] |  |  | ABIL - relative nitrification (%) at 10 µM [2, 5]: 49%
COCCNC(=O)c1cc(C2CC2)nc2c1cnn2C(C)C [Example 5] |  |  | activity at 10 µM [2, 4]: 11%
CC(C)n1ncc2c(C(=O)NCCN(C)C)cc(C3CC3)nc21 [Example 15] |  |  | activity at 10 µM [2, 4]: 65%
CCC(C)NC(=O)c1cc(C(C)C)nc2c1cnn2C(C)C (stereo not shown) [Example 14] |  |  | activity at 10 µM [2, 4]: 61%
CC(C)n1ncc2c(C(=O)NCCc3ccccn3)cc(C3CC3)nc21 [Example 10] |  |  | activity at 10 µM [2, 4]: 19%
Cc1nn(C)c2nc(C3CC3)cc(C(=O)NCCC(C)C)c12 [Example 16] |  |  | activity at 10 µM [2, 4]: 65%
Cc1nn(C(C)(C)C)c2nc(C3CC3)cc(C(=O)N(C)C)c12 [Example 11] |  |  | activity at 10 µM [2, 4]: 25%
COCCONC(=O)c1cc(C2CC2)nc2c1c(C)nn2C(C)(C)C [Example 6] |  |  | activity at 10 µM [2, 4]: 16%
